# US20240285600A1, “NOVEL MKRN1 INHIBITOR AND PHARMACEUTICAL COMPOSITION FOR PREVENTING OR TREATING OBESITY OR FATTY LIVER COMPRISING THE SAME” (UIF (University Industry Foundation), Yosei University, priority 2023, published 2024)
# Columns and labels:
# AMPK = conditions: HepG2 cells, cultured for 16 or 24 hours, FIG. 9
# HepG2 cells = test: Fat accumulation in HepG2 cells treated with AMPK activator and PAOA; assay type: cell-based; conditions: PAOA 1 mM, FIG. 8
# Description: Specifically, HepG2 cells were cultured, and then treated with various types of AMPK activators. Thereafter, the cells were treated with palmitic acid and oleic acid (PAOA) at a concentration of 1 mM, and further cultured, and the degree of fat accumulation was then confirmed.
# [1] = system: wild-type mice fed a CDAHFD; test: Anti-steatohepatitis effect in mice fed a CDAHFD, ebastine after 2 weeks; assay type: in vivo; conditions: CDAHFD 6 weeks, vs control
# Description: Body weights were measured once every 3 to 4 days for 6 weeks, and the liver was isolated at the end of the experiment. Thereafter, a histological examination was performed.
# [2] = system: wild-type mice fed an HFHF diet; test: Anti-obesity/anti-steatohepatitis effect in mice fed an HFHF diet, ebastine after 4 weeks; assay type: in vivo; conditions: HFHF diet 20 weeks
# Description: (§1) Body weights were measured once every 3 to 4 days for 20 weeks, and the liver was isolated at the end of the experiment. Thereafter, a histological examination was performed.
# [3] = system: wild-type mice fed an HFHF diet; test: Therapeutic effect on steatohepatitis in mice fed an HFHF diet, ebastine after 16 weeks; assay type: in vivo; conditions: HFHF diet 20 weeks
# Description: as §1
smiles,measurement,setting,value
CC(C)(C)c1ccc(C(=O)CCCN2CCC(OC(c3ccccc3)c3ccccc3)CC2)cc1 [ebastine],amount of AMPK,AMPK,increased
same,amount of phosphorylated AMPK,AMPK,increased
same,degree of fat accumulation,HepG2 cells,effective in suppressing fat accumulation
same,body weight,"[1]; ebastine 1 and 5 mg/kg after 2 weeks, FIG. 14A",no significant difference
same,liver condition observed with the naked eye,"[1]; ebastine after 2 weeks, FIG. 14B",appeared similar
same,liver weight,"[1]; ebastine after 2 weeks, FIG. 14C",no difference
same,expression level of MKRN1 in the liver (immunohistochemistry),"[1]; ebastine after 2 weeks, FIG. 14D",decreased
same,fat accumulation in the liver (H&E),"[1]; ebastine after 2 weeks, FIG. 14E",almost no fat accumulated in the liver
same,liver fibrosis (Sirius Red),"[1]; ebastine after 2 weeks, FIG. 14F",did not progress
same,liver inflammation (F4/80 IHC),"[1]; ebastine after 2 weeks, FIG. 14G",suppressed
same,weight of the liver,"[2]; ebastine 5 mg/kg after 4 weeks, FIG. 13C",lowest
same,body weight gain,"[2]; ebastine 1 and 5 mg/kg after 4 weeks, vs control, FIG. 13A",less
same,liver shape observed with the naked eye,"[2]; ebastine after 4 weeks, FIG. 13B",close to a normal shape
same,expression level of MKRN1 in the liver (immunohistochemistry),"[2]; ebastine after 4 weeks, vs control",decreased
same,fat accumulation in the liver (H&E),"[2]; ebastine after 4 weeks, vs control, FIG. 13E",almost no fat accumulated in the liver
same,liver fibrosis (Sirius Red),"[2]; ebastine after 4 weeks, vs control, FIG. 13F",did not progress
same,liver inflammation (F4/80 IHC),"[2]; ebastine after 4 weeks, vs control, FIG. 13G",suppressed
same,weight of the liver,"[3]; ebastine 5 mg/kg after 16 weeks, FIG. 15C",lowest
same,body weight change,"[3]; ebastine 1 and 5 mg/kg after 16 weeks (for 4 weeks), vs control, FIG. 15A",no difference
same,liver shape observed with the naked eye,"[3]; ebastine after 16 weeks, FIG. 15B",close to a normal shape
same,expression level of MKRN1 in the liver (immunohistochemistry),"[3]; ebastine after 16 weeks, vs control, FIG. 15D",decreased
same,fat accumulation in the liver (H&E),"[3]; ebastine after 16 weeks, vs control, FIG. 15E",almost no fat accumulated in the liver
same,liver fibrosis (Sirius Red),"[3]; ebastine after 16 weeks, vs control, FIG. 15F",did not progress
same,liver inflammation (F4/80 IHC),"[3]; ebastine after 16 weeks, vs control, FIG. 15G",suppressed
same,expression levels of fibrosis- and inflammation-related genes in the liver (RT-PCR),"[3]; ebastine after 16 weeks, vs control, FIG. 15H",generally suppressed
